Reference: ChEMBL document CHEMBL3875189, “A benzo[b]thiophene-based selective type 4 S1P receptor agonist” (Bioorg Med Chem Lett, 2017)
Active and inactive are the calls of the source. The calls are words filed in the database; no cut-off is given here.

Tests used:
[1] = target: T1, Sphingosine 1-phosphate receptor 4 (Homo sapiens) (UniProt O95977); test: Activation of human S1PR4 expressed in CHO cells assessed as ERK1/2 phosphorylation at 10 uM treated under serum-free condition post 1 day serum starvation measured after 5 mins by Western blot analysis; type: cell-based
T1 sequence (whole entry): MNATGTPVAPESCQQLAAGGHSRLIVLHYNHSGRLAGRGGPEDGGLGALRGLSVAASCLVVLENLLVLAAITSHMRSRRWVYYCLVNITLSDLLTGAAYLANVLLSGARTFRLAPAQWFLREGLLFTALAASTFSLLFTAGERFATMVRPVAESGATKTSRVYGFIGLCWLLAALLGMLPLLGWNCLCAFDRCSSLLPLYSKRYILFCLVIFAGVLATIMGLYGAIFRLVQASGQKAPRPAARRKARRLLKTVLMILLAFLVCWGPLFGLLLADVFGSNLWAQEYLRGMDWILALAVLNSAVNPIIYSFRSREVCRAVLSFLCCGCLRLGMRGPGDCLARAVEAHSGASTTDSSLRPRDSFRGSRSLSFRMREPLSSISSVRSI

[2] = target: T2, Sphingosine 1-phosphate receptor 5 (Homo sapiens, UniProt Q9H228); test: Agonist activity at recombinant human S1PR5 expressed in CHO cell membranes assessed as [35S]GTP-gammaS binding measured after 1.5 hrs by TopCount scintillation counting method
T2 sequence (Q9H228 whole entry): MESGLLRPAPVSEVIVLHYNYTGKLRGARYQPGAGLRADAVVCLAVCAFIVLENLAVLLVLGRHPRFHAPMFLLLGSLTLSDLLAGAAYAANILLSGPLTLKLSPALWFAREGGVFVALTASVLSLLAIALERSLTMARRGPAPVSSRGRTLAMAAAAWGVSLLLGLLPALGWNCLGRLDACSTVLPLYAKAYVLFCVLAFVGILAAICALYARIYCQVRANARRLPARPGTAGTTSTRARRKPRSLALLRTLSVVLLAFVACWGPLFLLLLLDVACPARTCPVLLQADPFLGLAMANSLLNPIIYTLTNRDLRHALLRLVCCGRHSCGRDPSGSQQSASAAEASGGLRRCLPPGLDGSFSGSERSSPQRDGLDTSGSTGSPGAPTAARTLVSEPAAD

[3] = target: T1, Sphingosine 1-phosphate receptor 4 (Homo sapiens); test: Activation of human S1PR4 expressed in CHO cells assessed as suppression of forskolin-induced intracellular cAMP level at 1 to 10 uM measured after 15 mins by ELISA; type: functional, cell-based
[4] = target: T3, Sphingosine 1-phosphate receptor 4 (Homo sapiens, UniProt O95977); test: Agonist activity at recombinant human S1PR4 expressed in CHO cell membranes assessed as [35S]GTP-gammaS binding measured after 1.5 hrs by TopCount scintillation counting method
T3 sequence (O95977 whole entry): T1 sequence (whole entry)

[5] = target: Sphingosine 1-phosphate receptor 2 (Homo sapiens, UniProt O95136); test: Agonist activity at recombinant human S1PR2 expressed in CHO cell membranes assessed as [35S]GTP-gammaS binding measured after 1.5 hrs by TopCount scintillation counting method
Chain of Sphingosine 1-phosphate receptor 2 (O95136 whole entry): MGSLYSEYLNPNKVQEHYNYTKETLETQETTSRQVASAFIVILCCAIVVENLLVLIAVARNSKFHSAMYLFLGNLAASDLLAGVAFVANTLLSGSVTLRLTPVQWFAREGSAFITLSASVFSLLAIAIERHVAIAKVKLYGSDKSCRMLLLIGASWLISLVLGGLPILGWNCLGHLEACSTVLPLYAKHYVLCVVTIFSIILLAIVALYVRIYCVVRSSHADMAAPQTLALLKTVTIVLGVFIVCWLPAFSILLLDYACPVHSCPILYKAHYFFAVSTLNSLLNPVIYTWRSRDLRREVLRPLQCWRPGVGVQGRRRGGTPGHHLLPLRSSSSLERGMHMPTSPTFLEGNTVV

[6] = target: T2, Sphingosine 1-phosphate receptor 5; test: Agonist activity at recombinant human S1PR5 expressed in CHO cell membranes assessed as [35S]GTP-gammaS binding measured after 1.5 hrs by TopCount scintillation counting method relative to S1P
[7] = target: T1, Sphingosine 1-phosphate receptor 4 (Homo sapiens); test: Activation of human S1PR4 expressed in CHO cells assessed as ERK1/2 phosphorylation at 100 nM treated under serum-free condition post 1 day serum starvation measured after 5 mins by Western blot analysis; type: cell-based
[8] = target: Sphingosine 1-phosphate receptor 3 (Homo sapiens, UniProt Q99500); test: Agonist activity at recombinant human S1PR3 expressed in CHO cell membranes assessed as [35S]GTP-gammaS binding measured after 1.5 hrs by TopCount scintillation counting method
Chain of Sphingosine 1-phosphate receptor 3 (Q99500 whole entry): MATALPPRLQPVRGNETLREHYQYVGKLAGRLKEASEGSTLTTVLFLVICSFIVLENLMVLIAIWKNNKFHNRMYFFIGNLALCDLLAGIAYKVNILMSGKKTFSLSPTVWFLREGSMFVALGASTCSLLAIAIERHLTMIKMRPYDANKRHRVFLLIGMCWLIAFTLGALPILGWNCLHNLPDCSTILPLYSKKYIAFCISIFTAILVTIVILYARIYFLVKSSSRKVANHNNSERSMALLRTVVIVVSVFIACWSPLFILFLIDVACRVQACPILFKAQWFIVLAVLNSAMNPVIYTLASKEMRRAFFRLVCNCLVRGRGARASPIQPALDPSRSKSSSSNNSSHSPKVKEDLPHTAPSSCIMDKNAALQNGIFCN

[9] = target: T3, Sphingosine 1-phosphate receptor 4; test: Activation of human S1PR4 expressed in CHO cells assessed as suppression of forskolin-induced intracellular cAMP level measured after 15 mins by ELISA; type: functional, cell-based
[10] = target: Sphingosine 1-phosphate receptor 1 (Homo sapiens, UniProt P21453); test: Agonist activity at recombinant human S1PR1 expressed in CHO cell membranes assessed as [35S]GTP-gammaS binding measured after 1.5 hrs by TopCount scintillation counting method
Chain of Sphingosine 1-phosphate receptor 1 (P21453 whole entry): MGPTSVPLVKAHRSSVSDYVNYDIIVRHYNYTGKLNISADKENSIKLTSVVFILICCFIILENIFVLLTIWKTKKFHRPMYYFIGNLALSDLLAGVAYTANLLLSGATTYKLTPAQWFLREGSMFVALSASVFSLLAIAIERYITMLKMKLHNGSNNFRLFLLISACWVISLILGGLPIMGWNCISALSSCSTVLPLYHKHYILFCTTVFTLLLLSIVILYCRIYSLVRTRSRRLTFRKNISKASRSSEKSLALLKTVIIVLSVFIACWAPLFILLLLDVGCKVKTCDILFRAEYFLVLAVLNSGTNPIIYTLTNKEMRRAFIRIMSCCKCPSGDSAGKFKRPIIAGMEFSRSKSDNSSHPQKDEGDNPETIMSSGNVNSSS

O=C(O)CCCNCc1cc2cccc(-c3ccc4ccccc4c3)c2s1
Activity [1]: Active
EC50 [2]: 370 nM
Activity [3]: Active
EC50 [4]: 200 nM
EC50 [5]: > 100000 nM
Efficacy [6]: 24%
Activity [7]: Active
EC50 [8]: > 100000 nM
EC50 [9]: 154 nM
EC50 [10]: > 100000 nM
